Consider six molecules from patent US11679109B2, “SMARCA degraders and uses thereof” (Kymera Therapeutics, Inc., priority 2019, dated 2023).

Bounds are passed on as bounds.

Common to all, as to type: cell-based
Experiment [1] deals with T1, SMARCA2 (Homo sapiens, UniProt P51531). The experiment can be described thus: SMARCA2 Western blot MV4-11 degradation. Conditions: MV4-11 cells, 24 h; for DC50: read-out: SMARCA2 MSD MV411 degradation 24 h: Mean external-Abs DC50; for Dmax: read-out: SMARCA2 MSD MV411 degradation 24 h: average Dmax %. More on the design: SMARCA2/SMARCA4 protein degradation selectivity in MV4-11 cells; endogenous in cells; host or cells: MV4-11. For orientation: In western blotting, separated proteins are transferred to a membrane and probed.
T1 sequence (P51531 whole entry): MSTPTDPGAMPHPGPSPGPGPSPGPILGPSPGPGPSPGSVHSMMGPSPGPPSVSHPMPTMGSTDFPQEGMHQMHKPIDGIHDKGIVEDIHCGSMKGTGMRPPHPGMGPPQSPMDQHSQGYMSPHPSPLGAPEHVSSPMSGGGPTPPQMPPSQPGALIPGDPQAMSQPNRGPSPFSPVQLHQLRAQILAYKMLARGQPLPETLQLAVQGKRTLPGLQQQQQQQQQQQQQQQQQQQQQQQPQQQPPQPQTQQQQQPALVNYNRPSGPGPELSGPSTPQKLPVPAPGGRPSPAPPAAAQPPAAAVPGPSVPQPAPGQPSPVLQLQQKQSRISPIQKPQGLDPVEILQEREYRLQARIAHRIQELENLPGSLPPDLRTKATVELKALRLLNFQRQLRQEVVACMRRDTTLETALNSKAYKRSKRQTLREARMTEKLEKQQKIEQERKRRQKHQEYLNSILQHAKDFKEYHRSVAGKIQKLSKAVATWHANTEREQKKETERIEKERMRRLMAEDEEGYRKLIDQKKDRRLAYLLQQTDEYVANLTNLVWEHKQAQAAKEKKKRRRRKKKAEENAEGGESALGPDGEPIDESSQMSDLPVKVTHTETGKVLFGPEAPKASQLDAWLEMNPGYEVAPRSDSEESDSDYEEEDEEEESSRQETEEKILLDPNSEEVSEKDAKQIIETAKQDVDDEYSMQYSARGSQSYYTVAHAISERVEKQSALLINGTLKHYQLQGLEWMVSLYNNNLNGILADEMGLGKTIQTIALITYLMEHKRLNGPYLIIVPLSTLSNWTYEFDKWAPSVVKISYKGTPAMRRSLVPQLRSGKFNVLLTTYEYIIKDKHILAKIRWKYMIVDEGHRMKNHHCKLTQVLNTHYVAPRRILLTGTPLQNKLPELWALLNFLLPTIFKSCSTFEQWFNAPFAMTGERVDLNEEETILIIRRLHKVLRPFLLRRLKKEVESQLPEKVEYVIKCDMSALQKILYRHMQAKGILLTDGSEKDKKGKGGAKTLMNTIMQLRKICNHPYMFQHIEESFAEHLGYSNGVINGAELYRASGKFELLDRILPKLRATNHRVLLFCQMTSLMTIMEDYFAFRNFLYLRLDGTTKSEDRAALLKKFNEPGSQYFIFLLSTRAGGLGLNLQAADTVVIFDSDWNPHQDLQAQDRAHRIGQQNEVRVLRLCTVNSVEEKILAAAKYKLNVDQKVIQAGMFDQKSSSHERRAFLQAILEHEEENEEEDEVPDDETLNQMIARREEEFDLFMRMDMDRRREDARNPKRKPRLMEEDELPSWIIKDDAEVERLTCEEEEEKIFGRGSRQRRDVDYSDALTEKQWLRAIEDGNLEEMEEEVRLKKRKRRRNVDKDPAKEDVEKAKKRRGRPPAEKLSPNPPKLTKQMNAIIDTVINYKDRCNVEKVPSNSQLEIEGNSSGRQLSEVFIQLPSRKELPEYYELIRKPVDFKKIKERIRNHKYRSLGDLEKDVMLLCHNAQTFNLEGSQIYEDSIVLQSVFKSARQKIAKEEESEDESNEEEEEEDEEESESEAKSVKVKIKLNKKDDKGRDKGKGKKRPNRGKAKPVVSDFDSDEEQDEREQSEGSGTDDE

The target in experiment [2] is T2, SMARCA4 (Homo sapiens, UniProt P51532).
T2 construct: SMARCA2/SMARCA4 protein degradation selectivity in MV4-11 cells; endogenous in cells; host or cells: MV4-11
T2 sequence (P51532 whole entry): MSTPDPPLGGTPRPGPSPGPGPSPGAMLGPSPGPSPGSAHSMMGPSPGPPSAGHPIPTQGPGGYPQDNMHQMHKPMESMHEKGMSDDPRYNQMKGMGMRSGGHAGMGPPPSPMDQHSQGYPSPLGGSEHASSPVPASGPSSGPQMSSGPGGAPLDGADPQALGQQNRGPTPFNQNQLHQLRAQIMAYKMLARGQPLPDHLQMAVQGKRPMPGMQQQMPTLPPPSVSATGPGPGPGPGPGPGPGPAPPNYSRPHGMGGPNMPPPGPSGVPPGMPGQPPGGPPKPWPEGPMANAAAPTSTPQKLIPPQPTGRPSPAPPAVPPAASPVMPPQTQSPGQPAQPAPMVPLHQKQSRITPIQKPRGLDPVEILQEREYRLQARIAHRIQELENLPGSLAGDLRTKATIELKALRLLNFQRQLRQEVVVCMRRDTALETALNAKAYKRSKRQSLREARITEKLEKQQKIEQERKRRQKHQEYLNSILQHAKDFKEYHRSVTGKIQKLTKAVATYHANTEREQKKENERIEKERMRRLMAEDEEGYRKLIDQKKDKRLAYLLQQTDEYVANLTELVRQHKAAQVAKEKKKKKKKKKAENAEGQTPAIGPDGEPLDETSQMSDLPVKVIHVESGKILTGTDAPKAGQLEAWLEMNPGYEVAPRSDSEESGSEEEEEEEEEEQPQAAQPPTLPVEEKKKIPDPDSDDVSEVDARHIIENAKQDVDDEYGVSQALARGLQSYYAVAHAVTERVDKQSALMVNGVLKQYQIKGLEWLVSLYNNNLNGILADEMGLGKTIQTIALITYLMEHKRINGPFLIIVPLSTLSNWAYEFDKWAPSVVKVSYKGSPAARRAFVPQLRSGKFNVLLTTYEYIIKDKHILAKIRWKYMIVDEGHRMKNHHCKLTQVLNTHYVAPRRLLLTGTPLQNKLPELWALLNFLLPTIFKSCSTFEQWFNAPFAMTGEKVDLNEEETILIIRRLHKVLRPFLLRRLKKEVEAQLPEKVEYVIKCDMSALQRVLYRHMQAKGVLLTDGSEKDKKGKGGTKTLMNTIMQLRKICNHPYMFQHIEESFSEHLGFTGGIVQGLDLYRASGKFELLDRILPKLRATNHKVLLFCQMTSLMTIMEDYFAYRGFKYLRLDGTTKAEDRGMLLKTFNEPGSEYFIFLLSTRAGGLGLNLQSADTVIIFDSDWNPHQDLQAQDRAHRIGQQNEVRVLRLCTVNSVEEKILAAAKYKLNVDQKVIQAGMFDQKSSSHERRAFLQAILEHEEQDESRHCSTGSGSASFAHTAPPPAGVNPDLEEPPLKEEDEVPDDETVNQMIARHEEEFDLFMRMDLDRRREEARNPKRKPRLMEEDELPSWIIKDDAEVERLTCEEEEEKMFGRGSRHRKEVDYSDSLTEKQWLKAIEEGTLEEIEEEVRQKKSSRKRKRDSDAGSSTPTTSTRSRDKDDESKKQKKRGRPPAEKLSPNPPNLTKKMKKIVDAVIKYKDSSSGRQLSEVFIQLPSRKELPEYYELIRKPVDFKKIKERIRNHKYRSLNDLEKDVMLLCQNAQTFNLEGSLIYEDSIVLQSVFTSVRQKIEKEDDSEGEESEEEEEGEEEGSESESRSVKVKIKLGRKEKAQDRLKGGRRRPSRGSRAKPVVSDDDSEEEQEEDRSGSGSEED
The experiment can be described thus: SMARCA4 Western blot MV4-11 degradation. Particulars: MV4-11 cells, 24 h; for DC50: read-out: SMARCA4 MSD MV411 degradation 24 h: Mean external-Abs DC50; for Dmax: read-out: SMARCA4 MSD MV411 degradation 24 h: average Dmax %. On the procedure:
Cells were seeded into 6-well plates (MV4-11: 4×10^6 cells/well/1 ml) and 1 ml of 2× compound solution was added into the well to make the final concentration and the plates were mixed well and incubated for 24 hours (No cytotoxicity was observed). The cell were collected with media and spun at 3000 rpm for 5 minutes. The supernatant was aspirated and the well and the cells were washed with cold PBS once and combined for centrifugation again; the supernatant aspirated again. 200 uL pre-chilled RIPA lysis buffer (Boston BioProducts BP-115D) with protease/phosphatase inhibitor (Roche 05892791001/Roche 04906837001) was directly added into the tube to lyze the cells for 20 minutes on ice. The cell lysate were collected into EP tubes and spun at 13000 rpm for 20 minutes and 72 uL supernatant was transferred to a fresh EP tube containing 18 uL of 5× loading buffer (Beyotime Bio P0015) to make the loading samples. The samples were heated to 100° C. for 10 minutes and cooled to RT and microcentrifuged. 20 uL of samples were loaded onto SDS-PAGE gel (Novex, WG1402BOX) and the gel was run at 80 V for 20 minutes and 120 V for 1.5 hours. The samples were electrotransfer to a NC membrane using wet-transfer method with 250 mA for 2.5 hours. The membrane was blocked with LICOR blocking buffer (LICOR, 927-50000) for 1 hour. The membrane was washed three times with TBST(CST #9997S), 5 minutes each. Incubation was performed with primary antibody prepared in blocking buffer with 0.1% Tween-20 (Solarbio, P8220) at 4° C. overnight (Anti-SMARCA2/BRM antibody (ab15597) 1:500; Anti-BRG1 antibody [EPR3912] (ab108318) 1:1000; Rabbit anti-Baf180 antibody [EPR15860] (Abeam,ab 196022) 1:1000; mouse anti-beta-Actin (8H10D10) (CST #3700) 1:10000). The membrane was washed three times with TBST, 5 minutes each. Incubation with secondary antibody was performed for 1 hour at RT (anti-rabbit IgG (Licor, 926-32211) 1:5000; anti-mouse IgG (LI-COR, 926-68070) 1:5000). The membrane was washed three times with 5 minutes each and lastly the LiCOR was read.
The letter codes for SMARCA2/4 degradation potency (DC50) include: A (<100 nM), B (100-500 nM), C (501-1000 nM), and D (>1000 nM). The letter codes for the percentage of SMARCA degradation after 24 hours (Dmax %) include: A (>90% degradation), B (>70-90% degradation), C (50-70% degradation), and D (<50% degradation).

In experiment [3] the target is T1, SMARCA2. The experiment can be described thus: MSD SMARCA2 degradation in A549 cell line. Particulars: A549 cells, 24 h; for DC50: read-out: SMARCA2 MSD A549 degradation 24 h: Average external-Abs DC50. Here is the method:
Cells were seeded into 96-well plates (A549 cells: 2×10^4 cells/well/100 ul media) and incubated overnight. The next day, 200 nL compound were added into the intermediate plate with Echo (Labcyte 550) from source plate containing a 3-fold serial dilution from top concentration of 1 mM. The culture medium was changed with 80 ul of fresh medium and 80 uL of 2× compound solution was added into the well to make a final concentration of 1000 nM, 333.3 nM, 111.1 nM, 37.04 nM, 12.35 nM, 4.115 nM, 1.372 nM, 0.457 nM, 0.152 nM and 0 nM (DMSO). The wells were mixed and then incubated for 24 hours. The media was aspirated from the cultures and 60 ul pre-chilled PIPA lysis buffer (Boston BioProducts BP-115D) with protease/phosphatase inhibitor (Roche 05892791001/Roche 04906837001) was added into the well to lyze the cells for 20 minutes at 4° C. The MSD plate (L15XA) was coated with 40 uL cell lysate and incubated at 4° C. overnight. The next day, the plate was washed three times with TBST (CST #9997S), 150 ul/well. The MSD plates was blocked with 150 ul blocking buffer per well and shaked for 1 hr at RT, 600 rpm. The blocking buffer was 3% Blocker A (MSD, R93BA-4) in TBST. The MSD plate was washed three times with 150 uL/well of TBST and 25 ul/well of detection antibody (Rabbit anti-SMARCA2/BRM antibody, 100 μg/mL, ab223735) was added at final concentration of 1 ug/mL diluted in 1% Blocking buffer and shaken for 1 hour at RT, 600 rpm. The MSD plate was washed three times with 150 ul/well of TBST and 25 ul/well of SULFO-TAG anti-rabbit antibody (MSD, R32AB-1) was added at final concentration of 1 ug/ml diluted in 1% Blocking buffer and shaken for 1 hour at RT, 600 rpm. The MSD plate was washed three times with 150 uL/well of TBST and 150 ul/well of 2×MSD reading buffer diluted from 4× (MSD, R92TC-2) with water was added. Lastly, the MSD instrument was read.
The letter codes for SMARCA2 degradation potency (DC50) include: A (<100 nM), B (100-500 nM), C (501-1000 nM), and D (>1000 nM). The letter codes for the percentage of SMARCA degradation after 24 hours (Dmax %) include: A (>90% degradation), B (>70-90% degradation), C (50-70% degradation), and D (<50% degradation).

As a reminder, the DC50 is the concentration giving 50% degradation. Usually Dmax stands for the greatest extent of degradation seen. For the molecule `Cc1ncsc1-c1ccc(CNC(=O)[C@@H]2C[C@@H](O)CN2C(=O)[C@@H](NC(=O)[C@H]2CC3(C2)C[C@H](N2CCC(c4cnc(N5CCc6[nH]c7nnc(-c8ccccc8O)cc7c6[C@H]5C)nc4)CC2)C3)C(C)(C)C)cc1` (single isomer, unassigned) [I-40], the DC50 in experiment [1] was less than 100 nM; in experiment [2], greater than 1000 nM; in experiment [3] it was 100 to 500 nM. In addition, the Dmax in experiment [1] was 70 to 90%; in experiment [2] it was less than 50%; in experiment [3] it was 70 to 90%.

Regarding `Cc1ncsc1-c1ccc(CNC(=O)[C@@H]2C[C@@H](O)CN2C(=O)[C@@H](NC(=O)[C@H]2CC3(C2)C[C@H](N2CCC(c4cnc(N5CCc6[nH]c7nnc(-c8ccccc8O)cc7c6[C@H]5C)nc4)CC2)C3)C(C)(C)C)cc1` (single isomer, unassigned) [I-41], the values for the DC50 in experiment [1], in experiment [2] and in experiment [3] were less than 100 nM, greater than 1000 nM and 100 to 500 nM, respectively.

As to `Cc1ncsc1-c1ccc(CNC(=O)[C@@H]2C[C@@H](O)CN2C(=O)[C@@H](NC(=O)C2CC3(C2)CC(N2CCC(c4ccnc(N5CCc6[nH]c7nnc(-c8ccccc8O)cc7c6[C@H]5C)n4)CC2)C3)C(C)(C)C)cc1` (stereo partly drawn) [I-13, (2S,4R)-4-hydroxy-1-((S)-2-(6-(4-(2-((R)-3-(2-hydroxyphenyl)-5-methyl-7,8-dihydro-5H-pyrido[3′,4′:4,5]pyrrolo[2,3-c]pyridazin-6(9H)-yl)pyrimidin-4-yl)piperidin-1-yl)spiro[3.3]heptane-2-carboxamido)-3,3-dimethylbutanoyl)-N-(4-(4-methylthiazol-5-yl)benzyl)pyrrolidine-2-carboxamide], the DC50 in experiment [1] was 501 to 1000 nM; in experiment [2], greater than 1000 nM; in experiment [3] it was greater than 1000 nM. Moreover, the maximal degradation (Dmax) in experiment [1] is 50 to 70%; in experiment [2], 50 to 70%; in experiment [3], less than 50%.

In the case of `Cc1ncsc1-c1ccc(CNC(=O)[C@@H]2C[C@@H](O)CN2C(=O)[C@@H](NC(=O)C2CC3(C2)CC(N2CCC(c4ccnc(N5CCc6[nH]c7nnc(-c8ccccc8O)cc7c6[C@@H]5C)n4)CC2)C3)C(C)(C)C)cc1` (stereo partly drawn) [I-14, (2S,4R)-4-hydroxy-1-((S)-2-(6-(4-(2-((S)-3-(2-hydroxyphenyl)-5-methyl-7,8-dihydro-5H-pyrido[3′,4′:4,5]pyrrolo[2,3-c]pyridazin-6(9H)-yl)pyrimidin-4-yl)piperidin-1-yl)spiro[3.3]heptane-2-carboxamido)-3,3-dimethylbutanoyl)-N-(4-(4-methylthiazol-5-yl)benzyl)pyrrolidine-2-carboxamide], the DC50 in experiment [1] was less than 100 nM; in experiment [2], greater than 1000 nM; in experiment [3], 100 to 500 nM. Also, the Dmax in experiment [1] lay within 70 to 90%; in experiment [2], 50 to 70%; in experiment [3] it was 70 to 90%.

In the case of `Cc1ncsc1-c1ccc(CNC(=O)[C@@H]2C[C@@H](O)CN2C(=O)[C@@H](NC(=O)C2CC3(C2)CC(N2CCC(c4cnc(N5CCc6[nH]c7nnc(-c8ccccc8O)cc7c6[C@@H]5C)nc4)CC2)C3)C(C)(C)C)cc1` (stereo partly drawn) [I-37, (2S,4R)-4-hydroxy-1-((S)-2-(6-(4-(2-((S)-3-(2-hydroxyphenyl)-5-methyl-7,8-dihydro-5H-pyrido[3′,4′:4,5]pyrrolo[2,3-c]pyridazin-6(9H)-yl)pyrimidin-5-yl)piperidin-1-yl)spiro[3.3]heptane-2-carboxamido)-3,3-dimethylbutanoyl)-N-(4-(4-methylthiazol-5-yl)benzyl)pyrrolidine-2-carboxamide], in experiment [1], the DC50 fell in the range of 100 to 500 nM and the Dmax lay within 50 to 70%. Besides, in experiment [3], the maximal degradation (Dmax) lay within 70 to 90% and the DC50 fell in the range of 100 to 500 nM.

Regarding `Cc1ncsc1-c1ccc(CNC(=O)[C@@H]2C[C@@H](O)CN2C(=O)[C@@H](NC(=O)C2CC3(C2)CC(N2CCC(c4cnc(N5CCc6[nH]c7nnc(-c8ccccc8O)cc7c6[C@H]5C)nc4)CC2)C3)C(C)(C)C)cc1` (stereo partly drawn) [I-38, (2S,4R)-4-hydroxy-1-((S)-2-(6-(4-(2-((R)-3-(2-hydroxyphenyl)-5-methyl-7,8-dihydro-5H-pyrido[3′,4′:4,5]pyrrolo[2,3-c]pyridazin-6(9H)-yl)pyrimidin-5-yl)piperidin-1-yl)spiro[3.3]heptane-2-carboxamido)-3,3-dimethylbutanoyl)-N-(4-(4-methylthiazol-5-yl)benzyl)pyrrolidine-2-carboxamide], the results for the 50% degradation concentration (DC50) in experiment [1], in experiment [2] and in experiment [3] were less than 100 nM, greater than 1000 nM and less than 100 nM, respectively. Moreover, the greatest degradation seen (Dmax) in experiment [1] is 70 to 90%; in experiment [2], less than 50%; in experiment [3] it was greater than 90%.
